Patent US8680137B2, “Agents and methods for treating ischemic and other diseases” (Nono Inc., priority 2009, dated 2014)
Where a name gives a salt, the structure may show the parent alone. Read-outs that look alike come from different tables or passages of the source.

Tests used:
murine TRPM7 = murine TRPM7 (Mus musculus, UniProt Q923J1); assay: TRPM7-mediated cell death screen, Tet-induced Flag-murine TRPM7 HEK293 Trex cells in Mg2+-deficient HBSS, PI fluorescence
Protocol: In the present example, human embryonic kidney (HEK293 Trex) cells were stably transfected with a tetracycline inducible Flag-tagged TRPM7 construct.
This cell death can be measured, and the impact of a candidate TRPM7 modulator on this cell death can be measured. […] Cell death can also be measured by fluorescent measurements of propidium iodide and dihydrorhodamine.
Tet-inducible Flag-murine TRPM7/pcDNA4-TO HEK293 Trex cells are cultured in: MEM (Invitrogen) supplemented with 10% fetal bovine serum, 20 mM GlutaMAX-1, 100 units/ml penicillin G sodium, 100 units/ml streptomycin sulfate, 0.25 ug/ml amphotericin B, 5 ug/ml blasticidin, 0.4 mg/ml zeocin. (All reagent were obtained from Invitrogen)
Stably transfected Flag-murine TRPM7/pcDNA4-TO HEK293 Trex cells are thawed from frozen stock kept in liquid nitrogen, and cultured in culture medium for 5 days in 100 mm dishes (Costa). […] Cells used in the present experiments are kept to three passages or less. The cells are maintained at 37° C. with 5% CO2 in a humidified incubator. All culture plates and multi-well plates (Costa) are coated with poly-D-lysine. The coating with poly-D-lysine is performed using 0.1 mg/ml poly-D-lysine (P1045 Sigma) for 12 h at 37C, followed by four washes with sterilized D-PBS (Invitrogen) without MgCl2 and CaCl2.).
When 384 well plates are used, Cells are seeded at 1.3−1.5×10^4 cells/well. When 96 well plates are used, cells are seeded at 4−5×10^4 Cells/well. After 24 h TRPM7 expression is induced by adding tetracycline (Tet; 1 ug/ml) (Invitrogen) for 24 h, followed by wash with Mg deficient HBSS.
The test compounds were plated in 96 or 384 well formats, and initially used at a concentration of: 4 μM for compounds of the LOPAC library and 5 μM for each of the Prestwick and Maybridge libraries.
Cell death in the presence or absence of a test compound and/or under conditions of TRPM7 activation was determined by fluorescence measurements of PI (5-50 μg/ml).
In brief, B scores are a relative potency score based on the raw sample PI fluorescence value. They are the ratio of an adjusted raw PI fluorescence value in the numerator to a measure of variability in the denominator.
In another approach, used manually to validate the results of the HTS method, a multiwell plate fluorescence scanner (Fluorskan Ascent; Thermo Scientific) was used. The fraction of dead cells in each culture was calculated as: fraction DEAD=(Ft−Fo)/Fmax Where Ft=PI fluorescence of the sample at time t, Fo=initial PI fluorescence and Fmax=background subtracted PI fluorescence the same cultures after exposure to 100 μM triton-X. An alternative to this formula is a Control-based formula wherein the fraction dead=[Ft−F(−)t]/[F(+)t−F(−)t] where Ft=PI fluorescence of the sample at time t, F(−)t is the PI fluorescence of the negative control sample at time t, F(+)t is the PI fluorescence of the positive control sample at time t.
Screening was carried out in Tet-induced Flag-murine TRPM7/pcDNA4-TO HEK293 Trex cells.

TRPM7 = TRPM7 (Homo sapiens, UniProt Q96QT4); details: Nadler et al., Jiang et al.; read-out: IC50 for inhibition of TRPM7; cited from earlier work
H9c2 cells = assay: OGD-induced cell death in H9c2 cardiomyocytes, PI uptake; assay type: cell-based, rat; details: 6 hr anoxia + 2 hr recovery, gadolinium in buffer
Protocol: The rat cardiomyoblast cell line H9c2 was obtained from the American Type Culture Collection (CRL-1446) and cultured in Dulbecco's Modified Eagle Medium supplemented with 10% (v/v) heat-inactivated fetal bovine serum and 1% antibiotic-antimycotic. Cells were grown in an atmosphere of […]/5% CO2 in a humidified incubator.
H9c2 cells were made anoxic by replacing the medium with de-oxygenated Ischemic buffer (in mM: 1.13 CaCl2, 5 KCl, 0.3 KH2PO4, 0.5 MgCl2, 0.4 MgSO4, 128 NaCl, 10 HEPES) and by transferring them to an anaerobic chamber (5% CO2, 10% H2, 85% N2) for 6 hrs or 16 hrs at 37° C. OGD was terminated by washing the cells with oxygenated glucose-containing Control buffer (in mM: 1.13 CaCl2, 5 KCl, 0.3 KH2PO4, 0.5 MgCl2, 0.4 MgSO4, 128 NaCl, 10 HEPES 10 Glucose). Cultures were maintained for another 2 hrs at 37° C. in a humidified 5% CO2 atmosphere. Normoxic cells were maintained in Control buffer for the duration of the experiment.
Cell death was determined by fluorescence measurements of PI (5 μg/ml) using a multiwell plate fluorescence scanner. The fraction of dead cells in each culture was calculated as: fraction dead=(Ft−F0)/Fmax where Ft=PI fluorescence at 2 hrs post-OGD, F0=initial PI fluorescence immediately after the OGD treatment, and Fmax=PI fluorescence of the same cultures following 20 mins incubation in 1% TritonX-100.
H9c2 cells were cultured and subjected to OGD as described supra. FIG. 71 panels A and B show the results of exposure to M21 or M5 for 24 hours following 6 hours of OGD. FIG. 71 panels C and D show the results of H9c2cells were treated with either 1 mM Mg^2+, 5 μM M6, M11 (acute treatment) during the anoxic and recovery periods, or 1 μM nifedipine. Results are presented as mean±SEM (n=4).

[1] = LOPAC (4 μM) and Prestwick (5 μM) hits
[2] = Prestwick library, 39 nM to 20 μM
[3] = Prestwick library, initial concentration 5 μM, HTS PI fluorescence
[4] = Prestwick library, manual replication
[5] = LOPAC library, initial concentration 4 μM, HTS PI fluorescence
[6] = LOPAC library, manual replication

murine TRPM7, sequence (Q923J1 whole entry): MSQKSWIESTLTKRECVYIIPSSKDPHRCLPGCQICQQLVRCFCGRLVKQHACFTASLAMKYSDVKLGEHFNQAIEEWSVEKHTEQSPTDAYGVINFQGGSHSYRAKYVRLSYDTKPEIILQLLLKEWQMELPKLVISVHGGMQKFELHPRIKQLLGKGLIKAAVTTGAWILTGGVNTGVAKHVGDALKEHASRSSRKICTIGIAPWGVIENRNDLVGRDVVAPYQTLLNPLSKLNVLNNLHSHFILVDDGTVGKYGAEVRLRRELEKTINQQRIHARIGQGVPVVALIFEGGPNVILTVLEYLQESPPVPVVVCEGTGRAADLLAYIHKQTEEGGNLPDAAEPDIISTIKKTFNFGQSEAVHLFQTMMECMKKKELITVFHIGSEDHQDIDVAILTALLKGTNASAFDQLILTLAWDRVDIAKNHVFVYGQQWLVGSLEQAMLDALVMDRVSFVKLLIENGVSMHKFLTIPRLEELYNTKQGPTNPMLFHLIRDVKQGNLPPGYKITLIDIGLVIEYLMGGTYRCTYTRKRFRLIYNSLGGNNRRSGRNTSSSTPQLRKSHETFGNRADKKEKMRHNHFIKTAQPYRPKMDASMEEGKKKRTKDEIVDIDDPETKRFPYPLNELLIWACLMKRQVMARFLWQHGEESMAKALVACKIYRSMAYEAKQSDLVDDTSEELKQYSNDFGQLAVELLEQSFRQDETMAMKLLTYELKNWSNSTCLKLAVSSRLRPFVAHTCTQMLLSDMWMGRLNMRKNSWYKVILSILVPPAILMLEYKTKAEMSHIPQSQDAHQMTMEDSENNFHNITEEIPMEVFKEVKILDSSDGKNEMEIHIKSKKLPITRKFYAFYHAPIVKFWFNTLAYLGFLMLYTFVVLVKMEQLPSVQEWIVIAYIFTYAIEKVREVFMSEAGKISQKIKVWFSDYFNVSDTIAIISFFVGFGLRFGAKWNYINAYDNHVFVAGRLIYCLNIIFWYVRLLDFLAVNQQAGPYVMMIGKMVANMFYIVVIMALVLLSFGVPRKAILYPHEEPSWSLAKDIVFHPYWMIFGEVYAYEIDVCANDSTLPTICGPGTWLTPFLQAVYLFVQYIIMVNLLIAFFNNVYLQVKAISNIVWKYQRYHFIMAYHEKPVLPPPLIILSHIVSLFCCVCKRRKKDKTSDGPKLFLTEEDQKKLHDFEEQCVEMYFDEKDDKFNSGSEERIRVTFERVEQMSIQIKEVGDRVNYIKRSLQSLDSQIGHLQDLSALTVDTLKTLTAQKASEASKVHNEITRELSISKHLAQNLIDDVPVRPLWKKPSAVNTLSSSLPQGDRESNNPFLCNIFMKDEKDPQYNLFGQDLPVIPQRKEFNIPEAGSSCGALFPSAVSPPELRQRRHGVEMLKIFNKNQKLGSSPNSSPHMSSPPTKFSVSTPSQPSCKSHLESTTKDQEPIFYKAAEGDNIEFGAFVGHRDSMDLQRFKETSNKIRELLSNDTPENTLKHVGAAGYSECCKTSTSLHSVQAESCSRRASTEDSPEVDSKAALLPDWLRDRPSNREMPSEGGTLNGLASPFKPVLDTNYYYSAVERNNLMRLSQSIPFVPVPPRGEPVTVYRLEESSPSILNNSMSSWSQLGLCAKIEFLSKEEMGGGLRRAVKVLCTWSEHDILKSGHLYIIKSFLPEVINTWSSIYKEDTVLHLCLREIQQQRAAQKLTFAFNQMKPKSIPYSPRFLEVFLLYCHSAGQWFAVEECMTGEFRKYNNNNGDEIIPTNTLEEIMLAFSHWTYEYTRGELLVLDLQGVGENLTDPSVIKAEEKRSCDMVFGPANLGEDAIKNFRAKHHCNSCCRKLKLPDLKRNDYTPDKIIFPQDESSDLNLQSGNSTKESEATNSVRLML
TRPM7, sequence (Q96QT4 whole entry): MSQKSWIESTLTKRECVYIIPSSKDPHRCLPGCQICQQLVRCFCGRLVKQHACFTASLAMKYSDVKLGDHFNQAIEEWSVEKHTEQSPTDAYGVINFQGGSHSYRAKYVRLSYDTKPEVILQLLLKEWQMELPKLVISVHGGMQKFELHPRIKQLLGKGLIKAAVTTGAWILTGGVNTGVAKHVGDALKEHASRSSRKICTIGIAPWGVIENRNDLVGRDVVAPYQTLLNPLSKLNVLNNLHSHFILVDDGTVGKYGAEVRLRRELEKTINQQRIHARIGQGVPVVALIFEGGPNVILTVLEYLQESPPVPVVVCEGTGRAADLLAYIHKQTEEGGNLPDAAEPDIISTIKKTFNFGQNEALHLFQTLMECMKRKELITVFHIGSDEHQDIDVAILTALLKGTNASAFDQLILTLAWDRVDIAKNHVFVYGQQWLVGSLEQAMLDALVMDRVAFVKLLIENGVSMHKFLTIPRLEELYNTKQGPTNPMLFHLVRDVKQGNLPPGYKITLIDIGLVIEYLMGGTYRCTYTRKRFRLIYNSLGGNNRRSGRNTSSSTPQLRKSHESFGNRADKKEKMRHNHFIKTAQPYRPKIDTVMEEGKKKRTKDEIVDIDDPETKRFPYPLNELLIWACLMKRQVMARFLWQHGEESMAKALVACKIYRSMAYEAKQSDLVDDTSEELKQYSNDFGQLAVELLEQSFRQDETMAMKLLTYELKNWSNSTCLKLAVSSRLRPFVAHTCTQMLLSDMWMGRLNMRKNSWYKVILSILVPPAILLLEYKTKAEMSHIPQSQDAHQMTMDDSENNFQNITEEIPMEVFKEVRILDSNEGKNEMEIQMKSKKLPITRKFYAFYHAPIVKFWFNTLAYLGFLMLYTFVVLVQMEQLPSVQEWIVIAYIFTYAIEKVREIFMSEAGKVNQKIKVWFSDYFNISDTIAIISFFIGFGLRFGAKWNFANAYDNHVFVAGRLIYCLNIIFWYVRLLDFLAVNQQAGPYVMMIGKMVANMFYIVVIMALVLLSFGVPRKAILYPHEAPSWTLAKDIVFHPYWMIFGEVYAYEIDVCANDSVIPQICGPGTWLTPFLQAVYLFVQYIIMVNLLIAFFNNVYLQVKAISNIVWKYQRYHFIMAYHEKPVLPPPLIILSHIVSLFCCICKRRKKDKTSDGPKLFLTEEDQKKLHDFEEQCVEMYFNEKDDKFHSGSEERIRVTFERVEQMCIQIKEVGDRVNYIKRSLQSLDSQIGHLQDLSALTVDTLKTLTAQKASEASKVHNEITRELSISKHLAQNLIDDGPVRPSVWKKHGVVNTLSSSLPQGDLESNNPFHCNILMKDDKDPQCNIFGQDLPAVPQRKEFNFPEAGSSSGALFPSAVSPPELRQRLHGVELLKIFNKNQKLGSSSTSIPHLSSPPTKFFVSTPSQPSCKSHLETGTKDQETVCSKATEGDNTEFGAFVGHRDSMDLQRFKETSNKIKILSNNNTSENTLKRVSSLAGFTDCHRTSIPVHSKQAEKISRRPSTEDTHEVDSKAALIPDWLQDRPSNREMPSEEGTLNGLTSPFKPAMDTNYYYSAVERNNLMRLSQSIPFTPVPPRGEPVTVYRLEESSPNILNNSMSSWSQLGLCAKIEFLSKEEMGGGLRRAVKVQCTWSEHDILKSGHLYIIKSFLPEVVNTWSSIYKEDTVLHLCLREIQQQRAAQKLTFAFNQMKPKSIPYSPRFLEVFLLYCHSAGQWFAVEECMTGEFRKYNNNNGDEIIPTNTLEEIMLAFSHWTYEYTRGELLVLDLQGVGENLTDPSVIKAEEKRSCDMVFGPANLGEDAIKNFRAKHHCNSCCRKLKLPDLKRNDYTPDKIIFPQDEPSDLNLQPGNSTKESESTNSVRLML

Structure (SMILES)	found to inhibit TRPM7-mediated cell injury (murine TRPM7; [1])	Dose-Response (murine TRPM7; [2])	B Score (murine TRPM7; [3])	Verification Ratio (murine TRPM7; [4])	Dose-Response (murine TRPM7; LOPAC library, 39 nM to 20 μM)	B Score (murine TRPM7; [5])	Verification Ratio (murine TRPM7; [6])	also measured
COc1ccc(C[C@H]2NC[C@H](O)[C@H]2OC(C)=O)cc1 [Anisomycin]	inhibit TRPM7-mediated cell injury	Yes	−6.683	0.4265				
COc1cccc(OC)c1OCCNCC1CSc2ccccc2O1 (centres unmarked) [Benoxathian hydrochloride]	inhibit TRPM7-mediated cell injury				Yes	−10.32	0.359	
CCn1cnc2c(Nc3cccc(Cl)c3)nc(N[C@@H]3CCCC[C@@H]3N)nc21.Cl [CGP-74514A hydrochloride]	inhibit TRPM7-mediated cell injury				Yes	−7.96	0.6543	
C[C@@]12C(=O)OC(=O)[C@]1(C)[C@H]1CC[C@@H]2O1 [Cantharidin]	inhibit TRPM7-mediated cell injury		−9.671	0.3746		−10.178	0.7724	
CC[C@H]1CN2CCc3cc(OC)c(OC)cc3[C@@H]2C[C@@H]1C[C@H]1NCCc2cc(O)c(OC)cc21.Cl.Cl.O.O.O.O.O.O.O [Cephaeline dihydrochloride heptahydrate]	inhibit TRPM7-mediated cell injury		−7.927	0.2271				
O=C(O)c1cc(O)cc(C(=O)O)n1 [Chelidamic acid]	inhibit TRPM7-mediated cell injury				Yes	−12.502	1.287	
Cc1cc(C2CCCCC2)n(O)c(=O)c1.NCCO [Ciclopirox ethanolamine]	inhibit TRPM7-mediated cell injury	Yes	−5.075	0.4227				
COc1cc2c(c(OC)c1OC)-c1ccc(OC)c(=O)cc1[C@@H](NC(C)=O)CC2 [Colchicine]								B Score (murine TRPM7): −7.343; Verification Ratio (murine TRPM7): 0.6723; found to inhibit TRPM7-mediated cell injury (murine TRPM7): inhibit TRPM7-mediated cell injury
COc1cccc2c1C(=O)c1c(O)c3c(c(O)c1C2=O)C[C@@](O)(C(C)=O)C[C@@H]3O[C@H]1C[C@H](N)[C@H](O)[C@H](C)O1 [Daunorubicin hydrochloride]	inhibit TRPM7-mediated cell injury	Yes	−5.68	0.4598				
C[C@H]1O[C@@H](O[C@H]2[C@@H](O)C[C@H](O[C@H]3[C@@H](O)C[C@H](O[C@H]4CC[C@@]5(C)[C@H](CC[C@@H]6[C@@H]5C[C@@H](O)[C@]5(C)[C@@H](C7=CC(=O)OC7)CC[C@]65O)C4)O[C@@H]3C)O[C@@H]2C)C[C@H](O)[C@@H]1O [Digoxin]								B Score (murine TRPM7): −5.938; Dose-Response (murine TRPM7): Yes; Verification Ratio (murine TRPM7): 0.7248; found to inhibit TRPM7-mediated cell injury (murine TRPM7): inhibit TRPM7-mediated cell injury
COc1cccc2c1C(=O)c1c(O)c3c(c(O)c1C2=O)C[C@@](O)(C(=O)CO)C[C@@H]3O[C@H]1C[C@H](N)[C@H](O)[C@H](C)O1 [Doxorubicin hydrochloride]	inhibit TRPM7-mediated cell injury	Yes	−9.315	0.4588				
CCOc1ccc(Cc2nccc3cc(OCC)c(OCC)cc23)cc1OCC [Ethaverine hydrochloride]	inhibit TRPM7-mediated cell injury	Yes	−9.238	0.08142				
Ic1ccccc1CNC1C2CCN(CC2)C1C(c1ccccc1)c1ccccc1.O=C(O)C(=O)O [L-703,606 oxalate]	inhibit TRPM7-mediated cell injury				Yes	−8.636	0.373	
CC[C@@H](C(=O)[C@@H](C)[C@@H](O)[C@H](C)CCc1ccc(C)c(O)c1C(=O)O)[C@H]1O[C@](CC)([C@H]2CC[C@](O)(CC)[C@H](C)O2)C[C@@H]1C [Lasalocid sodium salt]	inhibit TRPM7-mediated cell injury		−5.54	0.6891				
[Mg+2] [Mg^2+]								IC50 (TRPM7): ~600 µM
O=C1c2c(O)ccc(O)c2C(=O)c2c(NCCNCCO)ccc(NCCNCCO)c21 [Mitoxantrone]	inhibit TRPM7-mediated cell injury				Yes	−7.587	0.25	
COc1ccccc1N1CCN(CC(O)COc2cccc3ccccc23)CC1 (centres unmarked) [Naftopidil dihydrochloride]	inhibit TRPM7-mediated cell injury		−8.736	0.1346	Yes	−7.535	0.2231	
COC(=O)C1=C(C)NC(C)=C(C(=O)OCCN(C)Cc2ccccc2)C1c1cccc([N+](=O)[O-])c1 (centres unmarked) [Nicardipine hydrochloride]	inhibit TRPM7-mediated cell injury	Yes	−7.543	0.6651				
COc1cc(/C=C/C(=O)N2CCC=CC2=O)cc(OC)c1OC [Piperlongumine]	inhibit TRPM7-mediated cell injury	Yes	−9.599	0.7354				
COc1ccc(C[C@H](N)C(=O)N[C@H]2[C@@H](O)[C@H](n3cnc4c(N(C)C)ncnc43)O[C@@H]2CO)cc1 [Puromycin dihydrochloride]	inhibit TRPM7-mediated cell injury	Yes	−5.573	0.5905				
CCN(CC)CCCC(C)Nc1c2ccc(Cl)cc2nc2ccc(OC)cc12 (centres unmarked) [Quinacrine dihydrochloride]	inhibit TRPM7-mediated cell injury				Yes	−5.516	0.8254	
C[n+]1cc2c3c(ccc2c2ccc4cc5c(cc4c21)OCO5)OCO3 [Sanguinarine chloride]	inhibit TRPM7-mediated cell injury					−6.158	0.8029	
COc1cc2c(cc1OC)-c1c/c(=N\c3c(C)cc(C)cc3C)n(C)c(=O)n1CC2 [Trequinsin hydrochloride]	inhibit TRPM7-mediated cell injury				Yes	−8.81	0.2534	
[Gd] [gadolinium, reference compound]								OGD-mediated cell death (H9c2 cells): reduced
